Read-outs that look alike come from different tables or passages of the source.
Test system: MCF-7 cells
Test: MTT proliferation assay in estrogen-dependent MCF-7 breast cancer cells
Type: cell-based
Conditions: for estrogenic activity relative to natural compound 1: comparison with coumestrol (compound 1)
Description: MCF-7 cells and MDA-MB-231 cells were maintained in Costar T75 flasks with Dulbeccos Modified Eagle Medium (DMEM) supplemented with 2 mM glutamine and 10% fetal bovine serum (Biological Industries Beit Haemek, LTD).
To deplete cells of estrogens, they were passaged for 1 week in phenol red-free DMEM supplemented with 10% estrogen-depleted calf serum (DCS/MEM) which was made by sequential treatment of calf serum with sulfatase and dextran-coated charcoal (Biological Industries Beit Haemek, LTD).
MCF-7 and MDA-MB-231 cells were plated in 96 well dishes (Costar) at approximately 5,000 cells/well and 2500 cells/well respectively in 100 ul medium. One day after plating (Day 0) 100 μl of the treatment media were added.
Final volume in each well was 200 μl. Each chemical was diluted to a final concentration of 10^−3M. At day 0 compounds 1 and 8b-8m (table 1) were diluted aside and 100 μl from each dilution were added to each well. The following dilution steps were performed: 2×10^−6M (4 μl of 10^−3M in 2 mL), 2×10^−7 M (200 μl of 2×10^−6M in 2 mL), 2×10^−8M (200 μl of 2×10^−7M in 2 mL) and 2×10^−9M (200 μl of 2×10^−8M in 2 mL).
Cell proliferation was quantified by colorimetric MTT assay. The use and validity of the MTT assay in MCF-7 cells is described by Martikainen et al.
Measurement of cell viability and proliferation were based on the reduction of tetrazolium salts using the MTT kit (Biological Industries Beit Haemek, LTD) according to the manufacturer instructions. The yellow tetrazolium MTT (3-(4,5-dimethylthiazolyl-2)-2,5-diphenyltetrazolium bromide) is reduced by metabolically active cells, in part by the action of dehydrogenase enzymes, to generate reducing equivalents such as NADH and NADPH. The resulting intracellular purple formazan can be solubilized and quantified by spectrophotometric means. The MTT Reagent yields low background absorbance values in the absence of cells. MTT assay was used to evaluate cell number in each well.

[1] = Homo sapiens, MCF7, MCF-7 breast cancer cells, read-out: IC50 value
[2] = Homo sapiens, MCF7, cell proliferation effect on MCF-7 cell line (estrogen dependent cells), MTT, NA = Not Active, read-out: IC50

SMILES | IC50 [1] [nM] | IC50 [2] [nM] | estrogenic activity relative to natural compound 1 | also measured
CC(=O)Nc1ccc2c(c1)oc1c3ccc(O)cc3oc(=O)c21 [Compound 8g] | 30 | 30 |  | 
O=c1oc2cc(O)ccc2c2oc3cc(O)ccc3c12 [Compound 1, coumestrol] |  |  |  | IC50 (cell proliferation effect on MCF-7 cell line (estrogen dependent cells), MTT, NA = Not Active, read-out: IC50): 73 nM
O=c1oc2cc(O)ccc2c2oc3ccc(O)cc3c12 [Compound 8f] |  |  | at least one order of magnitude less active | 
O=c1oc2cc(O)ccc2c2oc3cc(O)c(O)cc3c12 [Compound 8c, 8-hydroxycoumestrol] |  |  | at least one order of magnitude less active | 
O=c1oc2ccccc2c2oc3ccccc3c12 [Compound 8b] |  |  | at least one order of magnitude less active | 
O=c1oc2ccccc2c2oc3cc(O)ccc3c12 [Compound 8d, 3-hydroxycoumestn] |  | 568 | at least one order of magnitude less active | proliferative effect on the MCF-7 cells (ER-positive breast cancer line MCF-7, result in words): did not showed any proliferative effect

Second part, led by results:

IC50 [1] [nM] | IC50 [2] [nM] | SMILES | estrogenic activity relative to natural compound 1 | also measured
170 | 170 | O=c1oc2cc(O)ccc2c2oc3ccc(C(F)(F)F)cc3c12 [Compound 8l, 3-trifluoromethylcoumestrol] |  | 
180 | 180 | O=c1oc2cc(O)ccc2c2oc3ccc4ccccc4c3c12 [Compound 8m, napthocoumestrol] |  | 
58 | 58 | CCOC(=O)c1ccc2oc3c4ccc(O)cc4oc(=O)c3c2c1 [Compound 8k] |  | 
107 | 107 | O=c1oc2cc(O)ccc2c2oc3ccc(Br)cc3c12 [Compound 8i] |  | 
 | 220 | O=c1oc2cc(O)ccc2c2oc3ccc(F)cc3c12 [Compound 8j] |  | 
< 1 | 9 | CC(=O)Nc1ccc2oc3c4ccc(O)cc4oc(=O)c3c2c1 [Compound 8h, 8-acetamidecoumestrol] |  | 
